# Measurements reported in EP0661266A1, “Substituted cyclic amine compounds as 5HT2 antagonists” (TOA EIYO LTD., priority 1993, dated 1995).
# Counter-ions that a name gives are not always drawn. Like-named read-outs stand apart in the source and are kept apart here.
# How the values were obtained:
# [1] = target: T1, serotonin 2 receptor (Rattus norvegicus, UniProt P14842); assay: Measurement of serotonin 2 receptor antagonistic activity (serotonin contraction of excised rat tail artery spiral specimen); assay type: cell-based; details: against the contraction of 3 x 10⁻⁶ serotonin, drug administered 10 minutes before cumulative serotonin, read-out: IC₅₀ value
# T1 construct: A piece of wire was inserted into each of the thus excised blood vessels to prepare a spiral specimen; from tissue; host or cells: rat (Wistar-KY) abdominal side tail artery, spiral specimen
# Method: [Measurement of serotonin 2 receptor antagonistic activity]
# Male rats of Wistar-KY line (body weight, approximately 220 to 370 g) were sacrificed and subjected to bloodletting to excise abdominal side tail arteries. A piece of wire was inserted into each of the thus excised blood vessels to prepare a spiral specimen (approximately 1.5 x 30 mm). The specimen was suspended in a Magnus tube (10 ml; Krebs-Hensereit solution) with a load of 500 mg at 37°C, and a gas mixture of 95% O₂ + CO₂ was passed through the tube. Tensile force was measured using a tension transducer (TB-621T, manufactured by Nippon Koden) and writing the data on an ink recorder (FBA-253A, manufactured by Toa Denpa) via a pressure amplifier (AP-621G, manufactured by Nippon Koden). After 1 hour of equilibration time, the specimen was contracted with 10⁻⁵ M of serotonin, washed and then subjected to cumulative administration of 10⁻⁸ to 3 x 10⁻⁵ M serotonin at intervals of 45 minutes to record the resulting contraction twice. The second recording was used as a control. Thereafter, each of the drugs to be tested was administered 10 minutes before the commencement of the cumulative administration to evaluate its serotonin antagonism. […] In the table, each result was indicated by "+" when the IC₅₀ value was 1.0 x 10⁻⁷ M or more, "++" when the value was 9.9 x 10⁻⁸ to 1.0 x 10⁻⁸ M and "+++" when the value was 9.9 x 10⁻⁹ M or smaller.
# [2] = tested on: platelet aggregation; assay: Measurement of platelet aggregation inhibition activity (5-HTP plus collagen induced aggregation of platelet rich plasma); assay type: cell-based; details: Oryctolagus cuniculus, rabbit PRP, 5-HTP final concentration 3 µM plus collagen in a concentration which alone does not cause aggregation, probit analysis, read-out: IC₅₀ value
# Method: [Measurement of platelet aggregation inhibition activity]
# Measurement of platelet aggregation was carried out using a platelet aggregation measuring apparatus NSB Hematracer 601.
# Blood samples were collected from auricular arteries of male Japanese white rabbits (2 to 3 kg) using a syringe containing 1 volume of 3.8% sodium citrate per 9 volumes of blood and centrifuged at 900 rpm for 10 minutes. After collecting the resulting supernatant fluid as platelet rich plasma (PRP), the remaining lower layer was centrifuged at 3,000 rpm for 10 minutes to obtain platelet poor plasma (PPP). Platelets in the thus obtained PRP were counted using a microcell counter (Sysmex F-800, manufactured by Toa Iyo Denshi) and diluted with the PPP to a density of 30 x 10⁴/µl.
# A 220 µl portion of PRP was mixed with 5 µl of 104 mM CaCl₂, incubated at 37°C for 1 minute and then mixed with 5 µl of a drug to be tested or physiological saline as a control. […] Activities to inhibit the aggregation reaction were measured to calculate 50% inhibition concentration (IC₅₀) by probit analysis, with the results shown in Table 2. In the table, each result was indicated by "+" when the IC₅₀ value was 1.0 x 10⁻⁶ M or more, "++" when the value was 9.9 x 10⁻⁷ to 1.0 x 10⁻⁷ M and "+++" when the value was 9.9 x 10⁻⁸ M or smaller.
# [3] = tested on: 5-HTP-induced head-twitch; assay: Measurement of activity to inhibit 5-HTP-induced head-twitch; assay type: in vivo, mouse; details: read-out: IC₅₀ value
# Method: [Measurement of activity to inhibit 5-HTP-induced head-twitch]
# To each ICR male mouse of 4 weeks of age were administered 300 mg/kg of 5-HTP by intraperitoneal injection (i.p.) and then 0.03 to 3 mg/kg of each test drug 25 minutes thereafter by intravenous injection, thereby counting the number of head-twitch induced after 5 minutes of the administration (for 20 minutes) and calculating the IC₅₀ value. In the table, each result was indicated by "+" when the IC₅₀ value was […] or more, "++" when the value was 100 to 999 mg/kg and "+++" when the value was 99 mg/kg or less.
# T1 sequence (P14842 whole entry): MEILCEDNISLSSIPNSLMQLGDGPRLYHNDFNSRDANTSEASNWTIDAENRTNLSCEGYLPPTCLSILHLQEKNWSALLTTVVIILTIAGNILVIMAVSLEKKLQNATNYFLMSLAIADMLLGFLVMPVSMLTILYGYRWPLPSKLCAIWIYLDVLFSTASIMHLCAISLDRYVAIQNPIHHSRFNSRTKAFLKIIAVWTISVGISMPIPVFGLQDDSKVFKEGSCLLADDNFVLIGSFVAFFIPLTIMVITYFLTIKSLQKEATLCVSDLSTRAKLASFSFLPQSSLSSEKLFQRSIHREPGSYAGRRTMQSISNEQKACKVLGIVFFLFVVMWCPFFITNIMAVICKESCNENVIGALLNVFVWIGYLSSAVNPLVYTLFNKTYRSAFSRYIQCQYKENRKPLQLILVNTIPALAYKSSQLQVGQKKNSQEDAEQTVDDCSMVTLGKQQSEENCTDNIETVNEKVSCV
Compound,IC50 [1],IC50 [2],"ED50 ([3]; Mus musculus, iv)","ED50 ([3]; ICR male mouse, 300 mg/kg 5-HTP i.p., test drug 0.03 to 3 mg/kg intravenous 25 minutes thereafter, head-twitch counted for 20 minutes)"
"COc1cccc(CC(CCN2CCC(C(=O)c3ccc(F)cc3)CC2)c2ccccc2OC)c1 (stereo not drawn) [A, 4-(4-Fluorobenzoyl)-1-[3-(2-methoxyphenyl)-4-(3-methoxyphenyl)butyl]piperidine hydrochloride]",10 to 99 nM,–,–,–
"COc1cccc(C(=O)N(CCN2CCC(C(=O)c3ccc(F)cc3)CC2)c2ccccc2OC)c1 [B, N-{2-[4-(4-Fluorobenzoyl)piperidino]ethyl}-3-methoxy-N-(2-methoxyphenyl)benzamide oxalate]",10 to 99 nM,–,–,–
"COc1ccc(S(=O)(=O)N(CCN2CCC(C(=O)c3ccc(F)cc3)CC2)c2ccccc2OC)cc1 [C, N-{2-[4-(4-Fluorobenzoyl)piperidino]ethyl}-4-methoxy-N-(2-methoxyphenyl)benzenesulfonamide oxalate]",–,≥ 1000 nM,–,–
"COc1ccc(S(=O)(=O)NC(=N)CCN2CCC(C(=O)c3ccc(F)cc3)CC2)cc1 [Compound I, 3-[4-(4-Fluorobenzoyl)piperidino]-N-(4-methoxybenzenesulfonyl)propionamidine oxalate]",10 to 99 nM,–,–,–
"COc1ccccc1N(CCN1CCC(C(=O)c2ccc(F)cc2)CC1)S(=O)(=O)c1ccc(F)cc1 [D, 4-Fluoro-N-{2-[4-(4-fluorobenzoyl)piperidino]ethyl}-N-(2-methoxyphenyl)benzenesulfonamide oxalate]",10 to 99 nM,–,–,–
"COc1ccc(S(=O)(=O)N(CCN2CCC(C(=O)c3ccc(F)cc3)CC2)C2CCCCC2)cc1 [E, N-Cyclohexyl-N-{2-[4-(4-fluorobenzoyl)piperidino]ethyl}-4-methoxybenzenesulfonamide oxalate]",10 to 99 nM,–,–,–
"COc1ccccc1N(CCN1CCC(C(=O)c2ccc(F)cc2)CC1)S(=O)(=O)c1ccc(CO)cc1 [F, N-{2-[4-(4-Fluorobenzoyl)piperidino]ethyl}-4-hydroxymethyl-N-(2-methoxyphenyl)benzenesulfonamide oxalate]",< 9.9 nM,–,–,–
"COc1ccccc1N(CCN1CCC(C(=O)c2ccc(F)cc2)CC1)C(=O)c1ccc(CO)cc1.O=C(O)C(=O)O [G, N-{2-[4-(4-Fluorobenzoyl)piperidino]ethyl}-4-hydroxymethyl-N-(2-methoxyphenyl)benzamide oxalate]",–,100 to 990 nM,< 99 mg/kg,–
"COc1ccccc1N(CCN1CCC(C(=O)c2ccc(F)cc2)CC1)C(=O)c1ccc(CN)cc1.O=C(O)C(=O)O [H, 4-Aminomethyl-N-{2-[4-(4-fluorobenzoyl)piperidino]ethyl}-N-(2-methoxyphenyl)benzamide oxalate]",10 to 99 nM,100 to 990 nM,> 1000 mg/kg,–
"COc1cccc(N(CCN2CCC(C(=O)c3ccc(F)cc3)CC2)C(=O)c2ccc(NC(C)=O)cc2)c1.O=C(O)/C=C/C(=O)O [J, 4-Acetylamino-N-{2-[4-(4-fluorobenzoyl)piperidino]ethyl}-N-(3-methoxyphenyl)benzamide fumarate]",10 to 99 nM,< 99 nM,100 to 999 mg/kg,–
"CC(=O)Nc1ccc(C(=O)N(CCN2CCC(C(=O)c3ccc(F)cc3)CC2)c2ccccc2)cc1 [K, 4-Acetylamino-N-{2-[4-(4-fluorobenzoyl)piperidino]ethyl}-N-(phenyl)benzamide fumarate]",10 to 99 nM,–,–,–
"O=C(c1ccc(F)cc1)C1CCN(CCn2c(=O)[nH]c3ccccc3c2=O)CC1 [ketanserin, reference compound]",–,100 to 990 nM,–,< 99 mg/kg
